Measured values reported in patent publication US20250275987A1, “MODULATORS OF INTRACELLULAR CHLORIDE CONCENTRATION FOR USE IN THE TREATMENT OF COGNITIVE DECLINE” (FONDAZIONE ISTITUTO ITALIANO DI TECNOLOGIA, priority 2022, published 2025).

Legend:
elderly mice = experiment: Object localization (OL) test of spatial memory in elderly mice; type: in vivo; conditions: 25 mg/kg i.p., vs vehicle, FIG. 3b
Source text: FIG. 3 illustrates the evaluation of the efficacy of furosemide (KCC2 inhibitor) to restore impaired memory in elderly mice. a) Quantification of the discrimination index of the NOR test in young (n=13) and elderly (n=10) mice (two tailed t-test, ** P<0.01). b) Quantification of the discrimination index of the OL test in mice treated with vehicle (young, n=13, elderly, n=7) or furosemide (young, n=11, elderly, n=6) (two-way ANOVA, Tukey post hoc test, * P<0.05).
To evaluate memory capacity in the elderly mice, the novel object recognition (NOR) test was conducted. This test evaluates the long-term object recognition memory by measuring the capacity of the mice to recognize a novel object compared to familiar objects. […] Subsequently, to test the ability of the non-selective KCC2 inhibitor, furosemide, to restore poor memory, the object localization (OL) test was conducted in the presence of the drug. The object localization test evaluates spatial memory by measuring the ability of the mice to recognize the new position of a familiar object. The mice were treated with furosemide (25 mg/kg i.p.) or with the vehicle.

KCC2 = target: T1, KCC2 (Homo sapiens, UniProt Q9H2X9); experiment: Thallium influx functional assay (FluxOR Potassium ion channel assay) in HEK293T cells transfected with KCC2; type: cell-based
T1 construct: expressed in transfected cells; host or cells: HEK293T
T1 sequence (Q9H2X9 1-1139): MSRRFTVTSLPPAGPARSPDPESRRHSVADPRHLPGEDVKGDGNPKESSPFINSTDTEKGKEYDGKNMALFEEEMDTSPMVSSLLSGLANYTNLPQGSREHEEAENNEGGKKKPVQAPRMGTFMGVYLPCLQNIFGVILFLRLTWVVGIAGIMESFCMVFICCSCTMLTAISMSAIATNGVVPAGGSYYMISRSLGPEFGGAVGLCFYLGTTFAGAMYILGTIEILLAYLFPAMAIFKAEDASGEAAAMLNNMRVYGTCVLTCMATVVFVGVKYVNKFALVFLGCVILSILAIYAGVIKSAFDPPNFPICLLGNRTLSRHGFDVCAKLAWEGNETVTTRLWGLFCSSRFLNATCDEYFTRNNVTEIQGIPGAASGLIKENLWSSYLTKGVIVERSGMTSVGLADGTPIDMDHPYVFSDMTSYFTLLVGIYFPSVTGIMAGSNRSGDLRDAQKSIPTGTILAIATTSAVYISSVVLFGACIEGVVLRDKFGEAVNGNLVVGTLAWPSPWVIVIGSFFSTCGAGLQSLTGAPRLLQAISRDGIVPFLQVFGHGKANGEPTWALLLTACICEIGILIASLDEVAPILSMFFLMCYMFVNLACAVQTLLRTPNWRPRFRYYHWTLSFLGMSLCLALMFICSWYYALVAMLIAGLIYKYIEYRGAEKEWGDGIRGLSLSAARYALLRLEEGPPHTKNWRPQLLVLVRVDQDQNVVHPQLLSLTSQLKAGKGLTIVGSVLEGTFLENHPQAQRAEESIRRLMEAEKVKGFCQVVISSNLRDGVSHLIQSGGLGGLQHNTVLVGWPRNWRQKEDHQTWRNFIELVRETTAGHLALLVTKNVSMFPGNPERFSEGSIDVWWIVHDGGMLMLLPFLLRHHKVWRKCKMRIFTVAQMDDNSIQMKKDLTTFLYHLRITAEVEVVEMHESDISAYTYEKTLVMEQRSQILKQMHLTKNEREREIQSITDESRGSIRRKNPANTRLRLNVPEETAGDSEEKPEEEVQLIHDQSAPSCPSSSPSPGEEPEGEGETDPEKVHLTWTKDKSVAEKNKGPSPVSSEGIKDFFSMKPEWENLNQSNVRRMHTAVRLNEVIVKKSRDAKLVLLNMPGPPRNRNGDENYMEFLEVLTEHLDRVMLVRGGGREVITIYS
Experimental: To verify the efficacy of the compounds to inhibit KCC2 in vitro a functional assay was used (FluxOR Potassium ion channel assay, Life Technologies), which measures the influx of thallium ions (replacing potassium) which permeate into the cell through KCC2. The thallium ions inside the cell are then measured using a Thallium sensor, the fluorescence of which increases after binding with thallium. In particular, the HEK293T cells were transfected with KCC2 or with the empty plasmid (mock control cells). After two days the cells were treated with the thallium sensor and in a solution without chlorine ions. After one hour the cells were washed and treated with furosemide and DMSO as negative control, again in a solution without chlorine ions and in the presence of a sodium/potassium pump inhibitor (ouabain). After twenty minutes the plates were placed in the Tecan Spark reader. The inhibitory activity of furosemide, reported in Table 1, was measured monitoring the fluorescence after thallium (TlSO4) and chlorine (NaCl) application.

[1] = test system: mice C57BL/6J aged >24 months; experiment: Open field test after benzodiazepine administration; type: in vivo; conditions: elderly mice (>24 months), 2 mg/kg in saline, vs elderly vehicle or young mice treated with diazepam
Source text: FIG. 2 illustrates the evaluation of the effect of benzodiazepines in elderly mice which is indicative of a potentiated GABAergic transmission. a) Quantification of the immobility time during the open field test of mice treated with vehicle (young, n=7, elderly, n=6) or diazepam (young, n=7, elderly, n=7) (two-way ANOVA, Tukey post hoc test, *** P<0.001). b) Quantification of the distance travelled during the open field test by mice treated with vehicle (young, n=7, elderly, n=6) or diazepam (young, n=7, elderly, n=7) (two-way ANOVA, Tukey post hoc test, […], *** P<0.001).
In fact, benzodiazepines are positive allosteric modulators of GABAAR. Benzodiazepines are commonly used as anxiolytic drugs, but can produce anxiogenic or highly sedative effects depending on the polarity of GABAergic transmission. To test the reaction of elderly mice to benzodiazepines, mice C57BL/6J aged >24 months and 2-month old controls C57BL/6J were treated with diazepam (2 mg/kg in saline solution) or vehicle (2% DMSO in saline solution). The open field test was then carried out to evaluate locomotor activity and the level of anxiety of the mice tested. […] This is indicative of an over-sedation reaction of the diazepam in the elderly mice, which may reflect the presence of hyper-inhibitory GABAergic transmission. This evidence in accordance with the […] of KCC2 (FIG. 1b).

Structure (SMILES)	spatial memory (discrimination index of the OL test) (elderly mice)	% KCC2 inhibition at 10 μM (KCC2; 10 μM, HEK293T cells transfected with KCC2, thallium fluorescence)	inhibition at 50 µM (KCC2; HEK-293T, 50 μM, HEK293T cells transfected with KCC2, thallium fluorescence) [%]	inhibition at 100 µM (KCC2; HEK-293T, 100 μM, HEK293T cells transfected with KCC2, thallium fluorescence) [%]	IC50 (KCC2; KCC2 inhibition in vitro) [µM]	immobility time during the open field test ([1]; FIG. 2a)	distance travelled during the open field test ([1]; FIG. 2b)
NS(=O)(=O)c1cc(C(=O)O)c(NCc2ccco2)cc1Cl [Furosemide, furosemide]	significantly restored the poor spatial memory of the elderly mice to the level of the young mice	Inactive	39.8 ± 1.6	45.1 ± 6.4	455	–	–
CN1C(=O)CN=C(c2ccccc2)c2cc(Cl)ccc21 [diazepam]	–	–	–	–	–	significantly higher immobility time	significantly lower distance travelled
